Consider 16 compounds from patent publication US20250032485A1, “APPLICATION OF IMIDAZO [1,2-A] PYRAZINE COMPOUNDS OR THEIR PHARMACEUTICALLY ACCEPTABLE SALTS IN THE PREPARATION OF ANTI-CORONAVIRUS DRUGS” (GUANGZHOU MEDICAL UNIVERSITY, priority 2023, published 2025).

For experiment [1], the target named is T1, PLpro of SARS-CoV-2 (Severe acute respiratory syndrome coronavirus 2, UniProt P0DTD1). The experiment can be described thus: Enzyme activity test in vitro: inhibition of PLpro at fixed concentration 50 μM (RLRGG-AMC substrate). In kind it is biochemical. Conditions: compound 50 μM, 10 min preincubation at 37° C., Table 1; read-out: Inhibition rate at 50 μM (%).

Experiment [2] deals with T1, PLpro of SARS-CoV-2. In words: IC50 determination of inhibition of PLpro activity (RLRGG-AMC substrate). Conditions: 13 concentrations 100 μM to 0.0244 μM, GraphPad Prism. In kind it is biochemical.

A word on the inhibition: it is the percentage by which the read-out fell short of the control. A word on the IC50: it is the concentration at which inhibition is half-maximal. A high value points to lower potency. Consider `CSc1ccc(-c2nc3cnccn3c2Nc2ccc(C(=O)O)cc2)cc1` [P19445, 4-[[2-(4-methyl-sulfanylphenyl)imidazo [1,2-a]pyrazin-3-yl]amino]benzoic acid], for which the inhibition at 50 µM on PLpro of SARS-CoV-2 [1] worked out at 50.2%. This compound showed an IC50 against PLpro of SARS-CoV-2 [2] of 47.6 µM.

For the compound `COC(=O)c1cccc(Nc2c(-c3ccc(N(C)C)cc3)nc3cnccn23)c1` [P19446, methyl 3-[[2-[4-(dimethyl-amino)phenyl]imidazo [1,2-a]pyrazin-3-yl]amino]benzoate], the inhibition at 50 µM on PLpro of SARS-CoV-2 [1] came to 65.8%. This compound also displayed an IC50 against PLpro of SARS-CoV-2 [2] of 30.3 µM.

As to `Cc1ccc(-c2nc3cnccn3c2Nc2ccc(C(N)=O)cc2)cc1` [P19452, 4-[[2-(4-methyl-phenyl)imidazo[1,2-a]pyrazin-3-yl]amino] benzamide], the inhibition at 50 µM on PLpro of SARS-CoV-2 [1] was 53.1%. On PLpro of SARS-CoV-2 [2], half-maximal inhibition (IC50) required 28.4 µM.

With `COc1ccc(Nc2c(-c3ccc(OC)c(OC)c3)nc3cnccn23)cc1OC` [P19453, N,2-bis(3,4-dimethoxy-phenyl)imidazo [1,2-a]pyrazin-3-amine], the inhibition at 50 µM at PLpro of SARS-CoV-2 [1] came out at 65.5%. This compound returned an IC50 against PLpro of SARS-CoV-2 [2] of 6.45 µM.

Regarding `COc1ccc(-c2nc3cnccn3c2Nc2ccc(C(N)=O)cc2)cc1OC` [P19454, 4-[[2-(3,4-dimethoxy-phenyl)imidazo [1,2-a]pyrazin-3-yl]amino]benzamide], the inhibition at 50 µM on PLpro of SARS-CoV-2 [1] stood at 53.8%. Besides, at PLpro of SARS-CoV-2 [2], the IC50 turned out to be 36.8 µM.

`COc1cc(-c2nc3cnccn3c2Nc2ccc(C(=O)O)cc2)ccc1O` [P19455, 4-[[2-(4-hydroxy-3-methoxyphenyl)imidazo[1,2-a]pyrazin-3-yl]amino]benzoic acid]: the inhibition at 50 µM on PLpro of SARS-CoV-2 [1] came to 53.1%. Further, half-maximal inhibition against PLpro of SARS-CoV-2 [2] (IC50) was put at 26.6 µM.

In the case of `COC(=O)c1cccc(Nc2c(-c3cccc(Cl)c3)nc3cnccn23)c1` [P19456, methyl 3-[[2-(3-chlorophenyl)imidazo[1,2-a]pyrazin-3-yl]amino] benzoate], at PLpro of SARS-CoV-2 [1], the inhibition at 50 µM is 47.8%. On PLpro of SARS-CoV-2 [2], this compound displayed an IC50 of 60.9 µM.

As for `CSc1ccc(-c2nc3cnccn3c2Nc2ccc(C(N)=O)cc2)cc1` [P19462, 4-[[2-(4-methyl-sulfanylphenyl)imidazo [1,2-a]pyrazin-3-yl]amino]benzamide], the inhibition at 50 µM on PLpro of SARS-CoV-2 [1] worked out at 65%. The compound further yielded an IC50 against PLpro of SARS-CoV-2 [2] of 26 µM.

As to `COc1ccc(-c2nc3cnccn3c2Nc2ccc(C(=O)NC3CCCCC3)cc2)cc1` [P22414, N-cyclohexyl-4-[[2-(4-methoxyphenyl)imidazo[1,2-a]pyrazin-3-yl]amino]benzamide], on PLpro of SARS-CoV-2 [1], the inhibition at 50 µM came out at 51.1%. The compound further showed an IC50 on PLpro of SARS-CoV-2 [2] of 45.9 µM.

Turning to `Cc1ccc(-c2nc3cnccn3c2Nc2ccc(C(=O)N3CCOCC3)cc2)cc1` [P22415, [4-[[2-(4-methyl-phenyl)imidazo[1,2-a]pyrazin-3-yl]amino]phenyl]-morpholin-4-ylmethanone], the inhibition at 50 µM at PLpro of SARS-CoV-2 [1] was determined as 63.3%. The compound further came in with an IC50 on PLpro of SARS-CoV-2 [2] of 49.7 µM.

As for `Cc1ccc(-c2nc3cnccn3c2Nc2ccc(C(=O)NCCN3CCOCC3)cc2)cc1` [P22423, 4-[[2-(4-methylphenyl)imidazo[1,2-a]pyrazin-3-yl]amino]-N-(2-morpholin-4-ylethyl)benzamide], the inhibition at 50 µM at PLpro of SARS-CoV-2 [1] was found to be 54.5%. Moreover, the IC50 on PLpro of SARS-CoV-2 [2] is 33.5 µM.

Turning to `O=C(NC1CCCCC1)c1cccc(Nc2c(-c3ccc(Cl)cc3)nc3cnccn23)c1` [P22438, 3-[[2-(4-chlorophenyl)imidazo[1,2-a]pyrazin-3-yl]amino]-N-cyclohexyl-benzamide], the inhibition at 50 µM on PLpro of SARS-CoV-2 [1] is 54.2%. This compound also returned an IC50 on PLpro of SARS-CoV-2 [2] of 40.8 µM.

With `COc1ccc(-c2nc3cnccn3c2Nc2ccc(C(=O)NCc3ccco3)cc2)cc1` [P22445, N-(furan-2-ylmethyl)-4-[[2-(4-methoxy-phenyl)imidazo[1,2-a]pyrazin-3-yl]amino]benzamide], the inhibition at 50 µM at PLpro of SARS-CoV-2 [1] turned out to be 62.3%. On PLpro of SARS-CoV-2 [2], this compound displayed an IC50 of 13.9 µM.

Regarding `CCNC(=O)c1ccc(Nc2c(-c3ccc(OC)cc3)nc3cnccn23)cc1` [P22471, Nethyl-4-[[2-(4-methoxyphenyl)imidazo[1,2-a]pyrazin-3-yl]amino]benzamide], the inhibition at 50 µM on PLpro of SARS-CoV-2 [1] was found to be 52.8%. On PLpro of SARS-CoV-2 [2], the IC50 stood at 35.1 µM.

For `COc1ccc(-c2nc3cnccn3c2Nc2cccc(C(N)=O)c2)cc1` [P22475, 3-[[2-(4-methoxy-phenyl)imidazo[1,2-a]pyrazin-3-yl]amino] benzamide], the inhibition at 50 µM on PLpro of SARS-CoV-2 [1] stood at 60.1%. For the same compound, the IC50 against PLpro of SARS-CoV-2 [2] turned out to be 16.6 µM.

Regarding `CSc1ccc(-c2nc3cnccn3c2Nc2cccc(C(=O)NCc3ccco3)c2)cc1` [P22479], on PLpro of SARS-CoV-2 [1], the inhibition at 50 µM was 58.8%. Half-maximal inhibition on PLpro of SARS-CoV-2 [2] (IC50) required 35.4 µM.
